Assay results reported in PubChem BioAssay AID248 (DTP/NCI, 2004).
Where “and” joins values, the source holds several entries; their conditions need not be identical. Equal entries are not always repeated. Toxic doses and inconclusive results are not listed. Cut-off read from the data, not from the text of the source: active = T/C of 150% or more; inactive = T/C below 125%.

Test system: L1210 leukemia ip in BDF1 mice, survival T/C
Experiment: NCI In Vivo Anticancer Drug Screen. Data for tumor model L1210 Leukemia (intraperitoneal) in B6D2F1 (BDF1) mice
Conditions: endpoint: mean survival time, higher = longer survival
Method in brief: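 Antitumor effect is assessed in tumor-bearing animals. Survival in the compound arm is compared with a vehicle-dosed control arm and expressed as their quotient.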

[1] = dose: 100.0 mg/kg/injection, schedule: Q04DX002 (ip), vehicle: Klucel (hydroxypropylcellulose) (HPC)
[2] = dose: 200.0 mg/kg/injection, schedule: Q04DX002 (ip), vehicle: Klucel (hydroxypropylcellulose) (HPC)
[3] = dose: 400.0 mg/kg/injection, schedule: Q04DX002 (ip), vehicle: Klucel (hydroxypropylcellulose) (HPC)
[4] = dose: 100.0 mg/kg/injection, schedule: Q04DX003 (ip), vehicle: saline with Tween-80
[5] = dose: 200.0 mg/kg/injection, schedule: Q04DX003 (ip), vehicle: saline with Tween-80
[6] = dose: 400.0 mg/kg/injection, schedule: Q04DX003 (ip), vehicle: saline with Tween-80
[7] = dose: 100.0 mg/kg/injection, schedule: Q01DX009 (ip), vehicle: saline with Tween-80
[8] = dose: 200.0 mg/kg/injection, schedule: Q01DX009 (ip), vehicle: saline with Tween-80
[9] = dose: 400.0 mg/kg/injection, schedule: Q01DX009 (ip), vehicle: saline with Tween-80
[10] = dose: 100.0 mg/kg/injection, schedule: Q01DX001 (ip), vehicle: carboxymethylcellulose (CMC)
[11] = dose: 200.0 mg/kg/injection, schedule: Q01DX001 (ip), vehicle: carboxymethylcellulose (CMC)
[12] = dose: 400.0 mg/kg/injection, schedule: Q01DX001 (ip), vehicle: carboxymethylcellulose (CMC)
[13] = dose: 100.0 mg/kg/injection, schedule: Q01DX009 (ip), vehicle: Klucel (hydroxypropylcellulose) (HPC)
[14] = dose: 100.0 mg/kg/injection, schedule: Q04DX003 (ip), vehicle: Klucel (hydroxypropylcellulose) (HPC)
[15] = dose: 200.0 mg/kg/injection, schedule: Q04DX003 (ip), vehicle: Klucel (hydroxypropylcellulose) (HPC)
[16] = dose: 400.0 mg/kg/injection, schedule: Q04DX003 (ip), vehicle: Klucel (hydroxypropylcellulose) (HPC)
[17] = dose: 100.0 mg/kg/injection, schedule: Q04DX003 (ip), vehicle: saline
[18] = dose: 200.0 mg/kg/injection, schedule: Q04DX003 (ip), vehicle: saline
[19] = dose: 400.0 mg/kg/injection, schedule: Q04DX003 (ip), vehicle: saline
[20] = dose: 50.0 mg/kg/injection, schedule: Q01DX009 (ip), vehicle: saline with Tween-80
[21] = dose: 25.0 mg/kg/injection, schedule: Q01DX009 (ip), vehicle: saline with Tween-80
[22] = dose: 25.0 mg/kg/injection, schedule: Q01DX009 (ip), vehicle: Klucel (hydroxypropylcellulose) (HPC)
[23] = dose: 50.0 mg/kg/injection, schedule: Q01DX009 (ip), vehicle: Klucel (hydroxypropylcellulose) (HPC)

Measured: T/C

CCc1cc2oc(C)c(C)c2c(N=Nc2ccccc2[N+](=O)[O-])c1O
inactive: [1] 96 % of control | [2] 96 % of control | [3] 93 % of control

CSCCCNC(=O)NS(=O)(=O)c1ccc(C)cc1
inactive: [4] 97 % of control | [5] 100 % of control | [6] 97 % of control

COC(=O)CCCCC(=O)OC
inactive: [7] 103 % of control | [8] 102 % of control | [9] 102 % of control

CC(=O)OCC1OC(n2ccc3c(=O)[nH]cnc32)C(OC(C)=O)C1OC(C)=O (stereo not drawn)
inactive: dose: 25.0 mg/kg/injection, schedule: Q01DX015 (ip), vehicle: carboxymethylcellulose (CMC) 121 % of control | dose: 50.0 mg/kg/injection, schedule: Q01DX001 (ip), vehicle: carboxymethylcellulose (CMC) 94 % of control | dose: 50.0 mg/kg/injection, schedule: Q01DX015 (ip), vehicle: carboxymethylcellulose (CMC) 112 % of control | [10] 96 % of control | [11] 100 % of control | [12] 102 % of control

CN(C)N=Nc1ccc(Cl)cc1C(N)=O
inactive: [7] 104 % of control | [4] 105 % of control | [8] 110 % of control | [5] 102 % of control | [6] 100 % of control

CCCCCN(CCCCC)CCCNc1c2c(nc3ccc(Cl)cc13)CCCC2
inactive: dose: 50.0 mg/kg/injection, schedule: Q01DX001 (ip), vehicle: saline 96 % of control

CC(=O)Nc1ccc(/C=C/c2ccc([N+](=O)[O-])cc2)cc1
inactive: [13] 100 % of control | [1] 96 % of control | [14] 100 % of control | dose: 200.0 mg/kg/injection, schedule: Q01DX009 (ip), vehicle: Klucel (hydroxypropylcellulose) (HPC) 95 % of control | [2] 93 % of control | [15] 98 % of control | dose: 400.0 mg/kg/injection, schedule: Q01DX009 (ip), vehicle: Klucel (hydroxypropylcellulose) (HPC) 92 % of control | [3] 104 % of control | [16] 107 % of control

CCOC(=O)C(=CN1CCCCC1)C(=O)OCC
inactive: [17] 98 % of control | [18] 101 % of control | [19] 95 % of control

CN(C)C1CS(=O)(=O)CC1[N+](C)(C)C (stereo not drawn)
inactive: dose: 100.0 mg/kg/injection, schedule: Q04DX002 (ip), vehicle: saline 118 % of control | dose: 200.0 mg/kg/injection, schedule: Q04DX002 (ip), vehicle: saline 89 % of control | dose: 400.0 mg/kg/injection, schedule: Q04DX002 (ip), vehicle: saline 110 % of control

O=c1[nH]cnc2c1nnn2C1CC(CO)C(O)C1O (stereo not drawn)
inactive: dose: 50.0 mg/kg/injection, schedule: Q04DX003 (ip), vehicle: saline 92 % of control | [17] 92 % of control | [18] 96 % of control

CNS(=O)(=O)c1ccc(NC(=O)CCl)cc1
inactive: [20] 104 % of control | dose: 100.0 mg/kg/injection, schedule: Q01DX001 (ip), vehicle: other 104 % of control | [7] 110 % of control | dose: 100.0 mg/kg/injection, schedule: Q04DX003 (ip), vehicle: other 101 % of control | dose: 200.0 mg/kg/injection, schedule: Q01DX001 (ip), vehicle: other 103 % of control | [8] 119 % of control | dose: 200.0 mg/kg/injection, schedule: Q04DX003 (ip), vehicle: other 98 % of control | dose: 400.0 mg/kg/injection, schedule: Q01DX001 (ip), vehicle: other 100 % of control

C=C(Br)CN(CC)C(C)=O
inactive: [17] 108 % of control

O=C(COc1ccc(Cl)c(Cl)c1)N(Cc1ccccc1)Cc1ccc[n+](Cc2ccc(S(=O)(=O)F)cc2)c1
inactive: [4] 102 % of control | [5] 96 % of control

O=C1C2CCCCC1C(N1CCCC1)CC2 (stereo not drawn)
inactive: dose: 100.0 mg/kg/injection, schedule: Q01DX009 (sc), vehicle: olive oil, sesame oil, peanut oil 98 % of control | dose: 100.0 mg/kg/injection, schedule: Q04DX003 (sc), vehicle: olive oil, sesame oil, peanut oil 96 % of control | dose: 200.0 mg/kg/injection, schedule: Q01DX009 (sc), vehicle: olive oil, sesame oil, peanut oil 104 % of control | dose: 200.0 mg/kg/injection, schedule: Q04DX003 (sc), vehicle: olive oil, sesame oil, peanut oil 100 % of control | dose: 400.0 mg/kg/injection, schedule: Q04DX003 (sc), vehicle: olive oil, sesame oil, peanut oil 111 % of control

Cc1c(N)cccc1N
inactive: dose: 12.5 mg/kg/injection, schedule: Q01DX009 (ip), vehicle: saline with Tween-80 119 % of control | dose: 12.5 mg/kg/injection, schedule: Q04DX003 (ip), vehicle: saline with Tween-80 95 % of control | [21] 108 % of control | dose: 25.0 mg/kg/injection, schedule: Q04DX003 (ip), vehicle: saline with Tween-80 117 % of control | dose: 50.0 mg/kg/injection, schedule: Q04DX003 (ip), vehicle: saline with Tween-80 117 % of control

CCCCCCCCCC(=O)CCCC
inactive: [7] 122 % of control | [17] 94 % of control | [8] 96 % of control | [18] 98 % of control | [9] 104 % of control | [19] 94 % of control

Nc1ccc(CSc2ccc(Cl)cc2)cc1
inactive: dose: 12.5 mg/kg/injection, schedule: Q01DX009 (ip), vehicle: Klucel (hydroxypropylcellulose) (HPC) 94 % of control | [22] 97 % of control | [23] 87 % of control | dose: 75.0 mg/kg/injection, schedule: Q01DX009 (ip), vehicle: Klucel (hydroxypropylcellulose) (HPC) 88 % of control | dose: 170.0 mg/kg/injection, schedule: Q01DX009 (ip), vehicle: Klucel (hydroxypropylcellulose) (HPC) 94 % of control

Cc1cn(C2CC(OS(C)(=O)=O)C(COC(c3ccccc3)(c3ccccc3)c3ccccc3)O2)c(=O)[nH]c1=O (stereo not drawn)
inactive: dose: 100.0 mg/kg/injection, schedule: Q01DX005 (ip), vehicle: saline 104 % of control | dose: 200.0 mg/kg/injection, schedule: Q01DX005 (ip), vehicle: saline 96 % of control

COCC(O)CCl (stereo not drawn)
inactive: [21] 113 % of control | [20] 113 % of control | [7] 113 % of control

CCOC(=O)CC1NCCc2c1[nH]c1ccccc21 (stereo not drawn)
inactive: dose: 6.25 mg/kg/injection, schedule: Q01DX001 (ip), vehicle: saline sonified 93 % of control | dose: 12.5 mg/kg/injection, schedule: Q01DX001 (ip), vehicle: saline sonified 98 % of control | dose: 25.0 mg/kg/injection, schedule: Q01DX001 (ip), vehicle: saline sonified 97 % of control

O=S([O-])c1ccc(Cl)cc1.O=S([O-])c1ccc(Cl)cc1.[Zn+2]
inactive: dose: 75.0 mg/kg/injection, schedule: Q01DX001 (ip), vehicle: saline 101 % of control | dose: 150.0 mg/kg/injection, schedule: Q01DX001 (ip), vehicle: saline 101 % of control | dose: 300.0 mg/kg/injection, schedule: Q01DX001 (ip), vehicle: saline 110 % of control

[N-]=[N+]=C1C(=O)NN=C1c1ccccc1
inactive: dose: 20.0 mg/kg/injection, schedule: Q04DX003 (ip), vehicle: Klucel (hydroxypropylcellulose) (HPC) 92 % of control | [22] 98 % of control | dose: 40.0 mg/kg/injection, schedule: Q04DX003 (ip), vehicle: Klucel (hydroxypropylcellulose) (HPC) 101 % of control | [23] 96 % of control and 108 % of control | dose: 80.0 mg/kg/injection, schedule: Q04DX003 (ip), vehicle: Klucel (hydroxypropylcellulose) (HPC) 97 % of control | [13] 101 % of control and 102 % of control | [14] 98 % of control and 101 % of control and 106 % of control | [15] 98 % of control | [16] 110 % of control

O=C(O)CCNc1ccccc1C(=O)O
inactive: [10] 100 % of control | [11] 96 % of control | [12] 100 % of control

O=C1CCC(=O)N1CC(O)COc1ccc(Cl)cc1 (stereo not drawn)
inactive: [7] 96 % of control | [8] 101 % of control | [9] 104 % of control

OC(C(F)(F)F)C(F)(F)Cl (stereo not drawn)
inactive: dose: 100.0 mg/kg/injection, schedule: Q01DX001 (ip), vehicle: saline 104 % of control
